{"source": "patent US6372727B1", "about": "“Metalloporphyrin treatment of neurologic disease” (UAB Research Foundation, priority 1999, dated 2002)", "key": {"[1]": {"system": "ALS-SOD1 (G93A) transgenic mice", "conditions": "cited from earlier work"}, "[2]": {"experiment": "Peroxynitrite-mediated nitration of GYA peptide", "assay_type": "biochemical", "conditions": "2 mM GYA, 10 μM MP or SOD subunit, 1 mM CO2, pH 7.4, 37° C.", "procedure": "Nitration efficiency, defined as the moles of nitrated GYA peptide formed per mole of peroxynitrite added, was determined at a fixed concentration of 10 μM MP or Cu,Zn SOD subunit, or 1 mM CO2 as described below. Increasing amounts of peroxynitrite were added in a sequential manner in order to determine whether nitration efficiency varied with concentration and to determine whether nitration catalysis was maintained with multiple additions (see INSET). Nitration efficiency was calculated for each peroxynitrite addition; the values shown are the average of all nine peroxynitrite additions. Absorbance changes were monitored simultaneously at 380, 430, and 460 nm.\nFor nitration of GYA peptide (see FIG. 6), reaction solutions contained 2 mM GYA and 10 μM of the indicated MP in 1.4 ml of 0.1 M potassium phosphate, pH 7.4 at 37° C. Comparisons with two previously characterized nitration catalysts, human Cu,Zn superoxide dismutase (hCu,Zn SOD) and carbon dioxide, were made using 10 μM of SOD subunit and 25 mM potassium bicarbonate, respectively, which was pH-adjusted to 7.4. This level of bicarbonate results in rapid saturation of the solution with carbon dioxide (˜1 mM). Solutions were placed into a rapidly stirred cuvette and nine bolus additions (50 μM×3, 100 μM×3, and 200 μM×3) of peroxynitrite were made sequentially while the absorbance was monitored. Increasing amounts of peroxynitrite were added in a sequential manner in order to determine whether nitration efficiency varied with concentration and to determine whether nitration catalysis was maintained with multiple additions (see FIG. 6 inset). Nitration efficiency was defined as the amount of nitropeptide formed per amount of peroxynitrite added and was calculated for each peroxynitrite addition; the values shown are the average of all nine peroxynitrite additions. The absorbance changes associated with nitrotyrosine peptide production were monitored simultaneously at 380, 430, and 460 nm. The extinction coefficients for nitrated GYA at pH 7.4 are 4,400 M^−1cm^−1 at 430 nm and 2,200 M^−1cm^−1 at both 380 and 460 nm. […] Wavelengths used to quantify nitrotyrosine production were chosen to minimize interference by the particular metalloporphyrin used. Experiments using HPA as a nitration target (FIG. 7) contained 8 mM HPA in either 0.1 M potassium phosphate, pH 7.4 or 0.1 M sodium borate, pH 9.1.\nThe relative abilities of several MPs to enhance nitration of the tripeptide GYA was compared using 10 μM MP and sequential bolus additions of 50 μM (×3), 100 μM (×3), and 200 μM (×3)peroxynitrite (FIG. 6, inset)."}, "[3]": {"conditions": "references (43), (5); cited from earlier work"}, "[4]": {"system": "bovine serum albumin", "conditions": "reference (35); cited from earlier work"}}}
{"compound": "Nc1nc2ccc(OC(F)(F)F)cc2s1", "note": "[Rilutek, riluzole]", "values": [{"measurement": "extension of lifespan", "setting": "[1]", "value": "about 7 days"}]}
{"compound": "Cu,Zn superoxide dismutase: human Cu,Zn superoxide dismutase, previously characterized endogenous nitration catalyst", "values": [{"measurement": "enhancement of nitration yield", "setting": "[2]", "value": 2, "unit": "fold"}, {"measurement": "rate of reaction with superoxide", "setting": "[3]", "value": "2e+09", "unit": "M⁻¹ s⁻¹"}]}
{"compound": "iron(III)-tetra-(2,4,6,-trimethyl-3-,3-disulfonatophenyl)-porphyrin [FeTMPS]", "values": [{"measurement": "nitration of tyrosine residues in bovine serum albumin", "setting": "[4]", "value": "inhibited"}]}
